These results are taken from patent US11273161B2, “Methods of treating autism spectrum disorders” (The Broad Institute, Inc., priority 2016, dated 2022).

For experiment [1], the target named is T1, ADSS (Mus musculus, UniProt P46664).
T1 construct: endogenous in cells; host or cells: primary mouse neurons, DIV21 (WT in A3; WT and Kctd13Δ47 in A4)
As to the kind of experiment: Dose-response of IMP levels in cell lysates of DIV21 neurons from WT mice. Particulars: FIG. 20. Type of experiment: cell-based. Here is the method:
FIGS. 20A-B show IMP levels in cell lysates of DIV21 neurons from WT mice following treatment with D, L-alanosine or L-alanosine, or untreated (U).
16p11.2 deletion patient fibroblast samples were acquired from the Simons Foundation VIP collection. For comparison, fibroblasts from unaffected individuals were obtained from Mclean Hospital collection of primary fibroblasts (Cohen, Ongur, McPhee). Fibroblasts were grown in DMEM supplemented with 10% serum (Gibco). For metabolic experiments, 160,000 cells/well were plated in DMEM (Gibco) supplemented with 10% fetal bovine serum (Gibco) in 12 well plates. […]
Next, metabolic changes were determined between 16p11.2 deletion patient fibroblasts compared with control fibroblasts. […]
(§1) Raw data were processed using MultiQuant 1.2 software (AB SCIEX) for automated LC-MS peak integration. […] Internal standard peak areas were monitored for quality control, to assess system performance over time, and to identify any outlier samples requiring re-analysis. A pooled plasma reference sample was also analyzed after sets of 20 study samples as an additional quality control measure of analytical performance and to serve as reference for scaling raw LC-MS peak areas across sample batches. […]
Next, purine metabolites were assessed in cell lysates and supernatants of cultured neurons from wild-type and kctd13Δ47 mice. […]

Experiment [2] has as its target T1, ADSS. The experiment in a line: S-Ado levels in cultured neurons from kctd13Δ47 mice contacted with L-alanosine. Format: cell-based. Particulars: increasing concentrations (0, 0.01, 0.1 μM), FIG. 22. Here is the method:
(§2) 16p11.2 deletion patient fibroblast samples were acquired from the Simons Foundation VIP collection. For comparison, fibroblasts from unaffected individuals were obtained from Mclean Hospital collection of primary fibroblasts (Cohen, Ongur, McPhee). Fibroblasts were grown in DMEM supplemented with 10% serum (Gibco). For metabolic experiments, 160,000 cells/well were plated in DMEM (Gibco) supplemented with 10% fetal bovine serum (Gibco) in 12 well plates. For neurons, 1 million primary mouse neurons/well were plated in 6 well plates and were extracted similar to fibroblasts as described below except volumes were doubled to accommodate the extra surface area.
Next, metabolic changes were determined between 16p11.2 deletion patient fibroblasts compared with control fibroblasts. For metabolite extraction, samples were collected from either cells or the cell media. […]
as §1

The target of experiment [3] is T2, ADSS (Homo sapiens, UniProt P30520).
T2 construct: fibroblasts from unaffected individuals were obtained from Mclean Hospital collection of primary fibroblasts; endogenous in cells; host or cells: primary human control fibroblasts (McLean Hospital collection)
T2 sequence (P30520 whole entry): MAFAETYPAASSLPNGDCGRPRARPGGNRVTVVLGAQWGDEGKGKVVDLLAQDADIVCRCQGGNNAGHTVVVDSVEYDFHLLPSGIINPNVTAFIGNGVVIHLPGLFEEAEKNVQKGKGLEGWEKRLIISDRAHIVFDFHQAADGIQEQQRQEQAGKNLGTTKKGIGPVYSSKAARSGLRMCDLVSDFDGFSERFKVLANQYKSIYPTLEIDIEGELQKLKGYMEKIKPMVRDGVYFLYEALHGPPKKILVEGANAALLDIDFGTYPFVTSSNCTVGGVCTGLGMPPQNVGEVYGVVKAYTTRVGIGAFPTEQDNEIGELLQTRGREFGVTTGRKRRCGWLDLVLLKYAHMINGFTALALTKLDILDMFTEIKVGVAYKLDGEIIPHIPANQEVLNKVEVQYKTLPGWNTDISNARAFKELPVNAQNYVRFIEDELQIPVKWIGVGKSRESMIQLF
As to the kind of experiment: LC-MS purine metabolite levels in human control fibroblast cell lysates after ADSS inhibition. Type of experiment: cell-based. The following applies: human control fibroblasts, 12 hours, 10 mg/mL, FIG. 19. Here is the method: as §2
Next, metabolic changes were determined between 16p11.2 deletion patient fibroblasts compared with control fibroblasts. For metabolite extraction, samples were collected from either cells or the cell media. Cell samples were extracted from cells grown in 12 well plates. Cell samples were extracted by washing cells once with 1 mL ice-cold PBS, transferring to dry ice, followed by adding 400 μL of 80% methanol (VWR) containing the internal standards inosine-^15N4, thymine-d4, and glycocholate-d4 (Cambridge Isotope Laboratories). Cells were then incubated for 15 minutes at −80° C., followed by scraping and transfer of the methanol and cells to a 1.5 mL tube. Cells were centrifuged (10 min, 9,000 g, 4° C.), and the supernatant was transferred to a new 1.5 mL tube. The pellet was extracted again with 50 μL of 80% methanol containing internal standards and centrifuged. The supernatant was then pooled with the previously collected methanol sample. Media supernatant samples (30 μL) were extracted using 120 μL of 80% methanol (VWR) containing the internal standards inosine-^15N4, thymine-d4, and glycocholate-d4 (Cambridge Isotope Laboratories). The samples were centrifuged (10 min, 9,000 g, 4° C.). The resulting supernatant was transferred to a new tube. Samples were stored at −80° C. until analysis.
A method using basic hydrophilic interaction chromatography (HILIC) separation and negative ionization mode MS detection was established on an LC-MS system consisting of an ACQUITY UPLC (Waters Inc.) coupled to a 5500 QTRAP triple quadrupole mass spectrometer (AB SCIEX). […]
as §1

The test system of experiment [4] is ADSS. The experiment in a line: Western blot of ADSS protein levels in neurons after proteasome or Cullin inhibition. Type of experiment: cell-based, mouse. The following applies: neurons from Kctd13Δ47 mice, treated 5 hours with 2 μM, FIG. 5. The text has this: Protein lysates were generated from mouse neurons prepared from wildtype or Kctd13Δ47 mice. C57B6 timed pregnant females were euthanized following IACUC approved method. E18 embryos were collected and rapidly decapitated. Embryos were then washed in dissection media (Hibernate-E (Hib-E, Gibco) supplemented with 100 U/mL penicillin streptomycin (Pen/Strep, Gibco)). Brains were isolated, cortices were separated from the midbrain and meninges was removed from each cortex. Each cortex was cut into six pieces; five cortices were pooled for dissociation. To dissociate 5 cortices, one Papain kit (Worthington LK3176) was reconstituted in 5 mLs Hib-E and activated at 37° C. for 10 minutes. Following activation, DNAse I (Sigma) was added to a concentration of 10 μg/mL and filter sterilized using a 0.22 μm filter. Cortices were washed twice with 5 mLs of Hib-E and 5 mLs of activated papain/DNAseI was added to the cortices and incubated for 8 minutes at 37° C. Following digestion, cortices were washed three times with 10 ml Hib-E per wash. Cortices were then triturated 10-15 times with a P1000 pipette in 1 mL NBActive4 supplemented with 10 μg/mL DNAseI filter sterilized using a 0.22 μm filter. […] Cells were counted in a hemocytometer, diluted and plated at 1 million cells/well in a 6 well poly-D-lysine (Corning, Biocoat) or 6 million cells/10 cm poly-D-lysine plate (Corning, Biocoat). […]

Each structure is given as a SMILES string.

T1 sequence (P46664 whole entry): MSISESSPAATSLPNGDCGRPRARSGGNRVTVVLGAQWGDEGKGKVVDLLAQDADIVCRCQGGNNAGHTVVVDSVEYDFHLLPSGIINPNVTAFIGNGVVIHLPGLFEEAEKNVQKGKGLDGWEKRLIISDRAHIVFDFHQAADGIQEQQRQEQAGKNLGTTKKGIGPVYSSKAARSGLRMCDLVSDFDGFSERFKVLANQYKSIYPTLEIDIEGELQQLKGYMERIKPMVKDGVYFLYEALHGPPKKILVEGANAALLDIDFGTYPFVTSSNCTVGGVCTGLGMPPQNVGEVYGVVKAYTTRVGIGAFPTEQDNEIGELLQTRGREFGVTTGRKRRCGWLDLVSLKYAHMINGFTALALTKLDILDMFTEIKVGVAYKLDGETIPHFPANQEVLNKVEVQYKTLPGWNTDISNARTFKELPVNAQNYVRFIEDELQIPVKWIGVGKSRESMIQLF

For `NC(CN(O)N=O)C(=O)O` (racemic) [D,L-alanosine, 3-(Hydroxynitrosoamino)-D,L-alanine], the IMP levels result at ADSS [1] is given as “dose-dependent increase”.
On to `N[C@@H](CN(O)N=O)C(=O)O` [L-alanosine, L-2-amino-3-(N-hydroxy-N-nitrosamino) propionic acid], for which the S-Ado levels result on ADSS [2] is recorded as “decreased”. On ADSS [3], the “levels of ADP” value is on record as “decreased”, the “levels of AMP” value is reported as “decreased” and the “levels of IMP” value is recorded as “increased”. Further, the “levels of aminoimidazole carboxamide ribotide (AICAR)” value on ADSS [3] (metabolite upstream of ADSS) was “not affected”. Further, the IMP levels entry at ADSS [1] is given as “dose-dependent increase”.
For `NS(=O)(=O)OC[C@@H]1C[C@@H](n2ccc3c(N[C@H]4CCc5ccccc54)ncnc32)C[C@@H]1O` [MLN4924], in the experiment on ADSS [4], the “change in ADSS levels” value is “no change”.
The same measure, in the same setting: with `CC(C)C[C@H](NC(=O)[C@H](Cc1ccccc1)NC(=O)c1cnccn1)B(O)O` [bortezomib] the entry was “no change”.
